Assay [1] concerns the target T1, Papain (Carica papaya) (UniProt P00784).
T1 sequence (whole entry): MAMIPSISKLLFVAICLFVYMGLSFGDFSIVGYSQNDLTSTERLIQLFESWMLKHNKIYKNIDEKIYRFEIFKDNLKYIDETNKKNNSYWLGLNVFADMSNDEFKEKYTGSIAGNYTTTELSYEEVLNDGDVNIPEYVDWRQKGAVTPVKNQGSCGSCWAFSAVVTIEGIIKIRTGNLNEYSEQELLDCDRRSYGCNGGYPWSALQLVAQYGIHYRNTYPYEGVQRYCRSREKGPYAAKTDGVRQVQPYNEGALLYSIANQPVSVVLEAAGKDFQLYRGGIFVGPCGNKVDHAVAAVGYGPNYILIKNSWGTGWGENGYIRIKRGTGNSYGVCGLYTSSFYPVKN
The experiment in a line: The second order rate constant of inactivation was reported.

For assay [2], the target named is T1, Papain (Carica papaya). Briefly: The second order rate constant of inactivation was reported at pH 4.
The target in assay [3] is T2, Papain (Carica papaya, UniProt P00784).
T2 sequence (P00784 whole entry): T1 sequence (whole entry)
Briefly: The compound was evaluated for inhibition of papain.

The target of assay [4] is T1, Papain (Carica papaya). Briefly: The first order rate constant of inactivation was reported.

This passage reports K2, IC50 and K1 results from ChEMBL document CHEMBL1133053, “(S)-Thiirancarboxylic acid as a reactive building block for a new class of cysteine protease inhibitors” (Bioorg Med Chem Lett, 2000).

pIC50: −log10 of the molar value.

As for `CCOC(=O)[C@H]1N[C@@H]1C(=O)O`, the figures for the K2 in assay [1] and in assay [2] were 78.2 M⁻¹ s⁻¹ and 413 M⁻¹ s⁻¹, respectively.
Turning to `O=C(O)[C@H]1CS1`, the K2 in assay [1] is 3.7 M⁻¹ s⁻¹.
A word on the pIC50: it is the negative decadic logarithm of the IC50, by convention in mol/L. Read a low pIC50 as a high IC50. Consider `CCOC(=O)[C@H]1CS1`, for which the pIC50 in assay [3] is 6.24. Moreover, the K1 in assay [4] came to 0.57 µM.
The molecule `O=C(O)[C@@H]1CN1` had a K2 in assay [1] of 17 M⁻¹ s⁻¹.
`CCOC(=O)C1OC1C(=O)OCC` (stereo unspecified) had a pIC50 in assay [3] of 6.68.
`COC(=O)[C@H]1CS1` had a negative-log IC50 (pIC50) in assay [3] of 6.70. The same molecule yielded a K1 in assay [4] of 0.2 µM.
Regarding `CCOC(=O)[C@@H]1O[C@H]1C(=O)OCC`, in assay [1], the K2 was 1.68 M⁻¹ s⁻¹.
`CCOC(=O)[C@H]1N[C@@H]1C(=O)OCC`: the K2 in assay [1] is 0.183 M⁻¹ s⁻¹; in assay [2], 1.02 M⁻¹ s⁻¹.
In assay [1], `CCOC(=O)[C@H]1O[C@@H]1C(=O)OCC` returned a K2 of 1.73 M⁻¹ s⁻¹.
Molecule `CCOC(=O)[C@@H]1N[C@H]1C(=O)O` registered a K2 in assay [1] of 58.8 M⁻¹ s⁻¹.
With `CCOC(=O)C1OC1C(=O)O` (stereo unspecified), the pIC50 in assay [3] is 7.98.
Molecule `CCOC(=O)[C@@H]1N[C@H]1C(=O)OCC` displayed a K2 in assay [1] of 0.2 M⁻¹ s⁻¹.
